Test results published in ChEMBL document CHEMBL1201862, “PubChem BioAssay data set” (2004).
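A five-concentration, 48-hour dose response in 96-well plates underlies each endpoint, interpolated linearly between surrounding concentrations. Abbreviation: GI50, concentration required for 50% inhibition of growth.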 Activity calls are given as the source filed them. Cut-off read from the data, not from the text of the source: active = GI50 up to about 1.1 µM and inactive = higher.

Tests used:
Assay in all cases: inhibition of tumour cell growth, NCI panel, 48 h
[1] = tested on: UACC-257
[2] = tested on: RXF 393
[3] = tested on: RPMI-8226
[4] = tested on: HCT-116
[5] = tested on: SK-MEL-5
[6] = tested on: NCI-H23
[7] = tested on: CCRF-CEM
[8] = tested on: MDA-MB-435
[9] = tested on: MCF7
[10] = tested on: NCI-H522
[11] = tested on: OVCAR-4
[12] = tested on: A498
[13] = tested on: ACHN
[14] = tested on: SF-295
[15] = tested on: CAKI-1
[16] = tested on: SR
[17] = tested on: IGROV-1
[18] = tested on: SNB-75
[19] = tested on: TK-10
[20] = tested on: K562

| Structure (SMILES) | GI50 [1] | GI50 [2] | GI50 [3] | GI50 [4] | GI50 [5] | GI50 [6] | GI50 [7] | GI50 [8] | GI50 [9] | GI50 [10] | GI50 [11] | GI50 [12] | GI50 [13] | GI50 [14] | GI50 [15] | GI50 [16] | GI50 [17] | GI50 [18] | GI50 [19] | GI50 [20] |
| --- | --- | --- | --- | --- | --- | --- | --- | --- | --- | --- | --- | --- | --- | --- | --- | --- | --- | --- | --- | --- |
| Oc1c2c(nc3cc4c(cc13)OCO4)-c1ccccc1CCC2 | > 50 µM (inactive) | > 50 µM (inactive) | > 50 µM (inactive) | 28.1 µM (inactive) | 45.6 µM (inactive) | > 50 µM (inactive) | > 50 µM (inactive) | 23.7 µM (inactive) | 26.5 µM (inactive) | > 50 µM (inactive) | 30.2 µM (inactive) | > 50 µM (inactive) | > 50 µM (inactive) | 17.1 µM (inactive) | > 50 µM (inactive) | 12.3 µM (inactive) | 30.2 µM (inactive) | > 50 µM (inactive) | > 50 µM (inactive) | > 50 µM (inactive) |
| O=C(O)C(Cc1ccc(O)c([N+](=O)[O-])c1)N1C(=O)c2ccccc2C1=O (stereo not given) | > 100 µM (inactive) | > 100 µM (inactive) | > 100 µM (inactive) | > 100 µM (inactive) | > 100 µM (inactive) | > 100 µM (inactive) | > 100 µM (inactive) | > 100 µM (inactive) | > 100 µM (inactive) | > 100 µM (inactive) | > 100 µM (inactive) | > 100 µM (inactive) | > 100 µM (inactive) | > 100 µM (inactive) | > 100 µM (inactive) | > 100 µM (inactive) | > 100 µM (inactive) | > 100 µM (inactive) | > 100 µM (inactive) | > 100 µM (inactive) |
| C/C1=C/C(C)CC(C)OC(=O)C(C)NC(=O)C(Cc2ccc(O)c(I)c2)N(C)C(=O)CNC(=O)C(C)C1 (stereo not given) | < 0.01 µM (active) | < 0.01 µM (active) | < 0.01 µM (active) | < 0.01 µM (active) | < 0.01 µM (active) | 0.409 µM (active) | < 0.01 µM (active) | < 0.01 µM (active) | 0.125 µM (active) | < 0.01 µM (active) | < 0.01 µM (active) | < 0.01 µM (active) | < 0.01 µM (active) | 0.0101 µM (active) | < 0.01 µM (active) | < 0.01 µM (active) | < 0.01 µM (active) | < 0.01 µM (active) | < 0.01 µM (active) | < 0.01 µM (active) |
| C=C(C)C1CC=C(C)C2(C1)OCC(C)(C)C(C)O2 (stereo not given) | 21.1 µM (inactive) | 13.7 µM (inactive) | 17.9 µM (inactive) | 16.3 µM (inactive) | 15.2 µM (inactive) | 20.7 µM (inactive) | 24.7 µM (inactive) | 21.3 µM (inactive) | 17.1 µM (inactive) | 17.7 µM (inactive) | 17.1 µM (inactive) | 14.6 µM (inactive) | 18.3 µM (inactive) | 19.5 µM (inactive) | 16.3 µM (inactive) | 18.2 µM (inactive) | 22.9 µM (inactive) | 22 µM (inactive) | 47.4 µM (inactive) | 18.5 µM (inactive) |
| COC(=O)C1Cc2cccc(C)c2C1 (stereo not given) | > 100 µM (inactive) | > 100 µM (inactive) | 93.5 µM (inactive) | > 100 µM (inactive) | > 100 µM (inactive) | > 100 µM (inactive) | 66.5 µM (inactive) | > 100 µM (inactive) | 19.1 µM (inactive) | 51.8 µM (inactive) | > 100 µM (inactive) | > 100 µM (inactive) | > 100 µM (inactive) | > 100 µM (inactive) | > 100 µM (inactive) | 79.3 µM (inactive) | > 100 µM (inactive) | > 100 µM (inactive) | > 100 µM (inactive) | 48.4 µM (inactive) |
| CCCC(=O)OCC1OC(n2cc(F)c(=O)[nH]c2=O)CC1O (stereo not given) | 4.1 µM (inactive) | > 10 µM (inactive) | 0.429 µM (active) | 0.614 µM (active) | 0.221 µM (active) | 0.127 µM (active) | 0.0356 µM (active) | > 7.98 µM (inactive) | 0.00463 µM (active) | 3.84 µM (inactive) | > 10 µM (inactive) | 0.489 µM (active) | 0.0395 µM (active) | 0.0731 µM (active) | 0.0402 µM (active) | 0.0265 µM (active) | > 8.09 µM (inactive) | 0.0871 µM (active) | 1.26 µM (inactive) | 1.87 µM (inactive) |
| O=C(N/N=C/c1ccc([N+](=O)[O-])cc1)Nc1ccc(C(=O)O)cc1 | 28.4 µM (inactive) | 26.1 µM (inactive) | 18.7 µM (inactive) | 22.3 µM (inactive) | 16.3 µM (inactive) | 23.2 µM (inactive) | 30.6 µM (inactive) | 29 µM (inactive) | 27.4 µM (inactive) | 7.85 µM (inactive) | 21.2 µM (inactive) | 20.2 µM (inactive) | 26.7 µM (inactive) | 17.4 µM (inactive) | 28.2 µM (inactive) | 43.5 µM (inactive) | 33.1 µM (inactive) | 46.3 µM (inactive) | 34.4 µM (inactive) | 13.3 µM (inactive) |
| C[N+]12CCCCC1C(COc1cccc3cccnc13)CCC2 (stereo not given) | > 100 µM (inactive) | > 100 µM (inactive) | 34.4 µM (inactive) | 61.2 µM (inactive) | 75 µM (inactive) | > 100 µM (inactive) | > 100 µM (inactive) | > 100 µM (inactive) | > 100 µM (inactive) | > 100 µM (inactive) | > 100 µM (inactive) | > 100 µM (inactive) | > 100 µM (inactive) | > 100 µM (inactive) | > 100 µM (inactive) | > 100 µM (inactive) | 75.5 µM (inactive) | > 100 µM (inactive) | > 100 µM (inactive) | 77.4 µM (inactive) |
| COc1cc([C@@H]2c3cc4c(cc3[C@@H](Nc3ccccc3C(=O)c3ccccc3)[C@H]3COC(=O)[C@H]23)OCO4)cc(OC)c1OC | 0.933 µM (active) | 0.459 µM (active) | 0.381 µM (active) | 0.321 µM (active) | 0.475 µM (active) | 0.668 µM (active) | 0.347 µM (active) | 0.27 µM (active) | 0.379 µM (active) | 0.31 µM (active) | > 27.2 µM (inactive) | 0.149 µM (active) | 0.535 µM (active) | 0.376 µM (active) | 0.741 µM (active) | 0.332 µM (active) | 0.836 µM (active) | 0.849 µM (active) | > 100 µM (inactive) | 0.35 µM (active) |
| COc1ccc(/C(Cl)=C(\C=O)c2ccc(OC)c(OC)c2)cc1OC | 41.7 µM (inactive) | 37.2 µM (inactive) | 70.3 µM (inactive) | > 91.4 µM (inactive) | > 81.7 µM (inactive) | 76.6 µM (inactive) | > 83.9 µM (inactive) | > 100 µM (inactive) | 56.8 µM (inactive) | 43.5 µM (inactive) | 63.8 µM (inactive) | > 94.4 µM (inactive) | > 100 µM (inactive) | 30.1 µM (inactive) | > 100 µM (inactive) | > 100 µM (inactive) | 95.3 µM (inactive) | 22.9 µM (inactive) | > 100 µM (inactive) | > 100 µM (inactive) |
| C/C=C/[C@H]1O[C@@](O)([C@@H](C)[C@H](O)[C@H](C)[C@H]2OC(=O)/C(OC)=C/C(C)=C/[C@@H](C)[C@@H](O)[C@@H](CC)[C@@H](O)[C@H](C)C/C(C)=C/C=C/[C@@H]2OC)C[C@H](OC2CC(O)C(O)C(C)O2)[C@@H]1C (stereo not given in full) | < 0.0075 µM (active) | 0.121 µM (active) | < 0.0075 µM (active) | < 0.0075 µM (active) | < 0.0075 µM (active) | 0.406 µM (active) | < 0.0075 µM (active) | < 0.0075 µM (active) | < 0.0075 µM (active) | < 0.0075 µM (active) | 0.244 µM (active) | 5.01 µM (inactive) | < 0.0075 µM (active) | < 0.0075 µM (active) | < 0.0075 µM (active) | < 0.0075 µM (active) | < 0.0075 µM (active) | 8.59 µM (inactive) | 9.48 µM (inactive) | < 0.0075 µM (active) |
| C=CCN(C(C)=O)c1cc(OCc2ccccc2)c2c(c1)c(C)cn2S(=O)(=O)c1ccccc1 | 5.11 µM (inactive) | 4.74 µM (inactive) | 2.47 µM (inactive) | 3.85 µM (inactive) | 4.37 µM (inactive) | 7.8 µM (inactive) | 4.11 µM (inactive) | 5.11 µM (inactive) | 3.93 µM (inactive) | 4.08 µM (inactive) | 5.42 µM (inactive) | 5.16 µM (inactive) | 4.36 µM (inactive) | 3.94 µM (inactive) | 6.59 µM (inactive) | 0.0566 µM (active) | 10 µM (inactive) | 6.18 µM (inactive) | 39.6 µM (inactive) | 2.83 µM (inactive) |
| Nc1ncnc2c1ncn2C1OC(CO)=CC1O (stereo not given) | > 37.5 µM (inactive) | > 37.5 µM (inactive) | > 37.5 µM (inactive) | > 37.5 µM (inactive) | > 37.5 µM (inactive) | > 37.5 µM (inactive) | > 37.5 µM (inactive) | > 37.5 µM (inactive) | > 37.5 µM (inactive) | > 37.5 µM (inactive) | > 37.5 µM (inactive) | > 37.5 µM (inactive) | > 37.5 µM (inactive) | > 37.5 µM (inactive) | > 37.5 µM (inactive) | > 37.5 µM (inactive) | > 37.5 µM (inactive) | > 37.5 µM (inactive) | > 37.5 µM (inactive) | > 37.5 µM (inactive) |
| O=C(NNC(=O)c1ccccc1O)c1ccccc1O | 0.376 µM (active) | 0.0514 µM (active) | 0.326 µM (active) | 0.0446 µM (active) | 0.607 µM (active) | 0.105 µM (active) | 0.0173 µM (active) | < 0.01 µM (active) | 0.43 µM (active) | 0.112 µM (active) | 0.0621 µM (active) | 19.8 µM (inactive) | 0.0507 µM (active) | 0.189 µM (active) | < 0.0237 µM (active) | 0.0366 µM (active) | < 0.0255 µM (active) | 0.0565 µM (active) | 5.97 µM (inactive) | < 0.0221 µM (active) |
